Read-outs that look alike come from different tables or passages of the source.
Tests used:
[1] = system: green peach aphid (Myzus persicae); test: Myzus test; format: in vivo; conditions: read-out: efficacy (aphids killed)
In short: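 Active ingredient formulated in acetone/dimethylformamide with alkylaryl polyglycol ether emulsifier, diluted in emulsifier-containing water. Sprayed onto Chinese cabbage leaf discs carrying all aphid stages; % efficacy scored after set time (100% = all aphids dead).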

[2] = Determination of log P values by HPLC on reversed-phase column (formic acid method); format: physicochemical
In short: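 Reversed-phase C18 HPLC per EEC Directive 79/831 Annex V.A8, pH 3.4, acetonitrile/water with formic acid, gradient 10% to 95% acetonitrile in 4.25 min. log P obtained from retention times by linear interpolation between successive unbranched alkan-2-ones (C3–C16) of known log P.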

[3] = application rate 500 g/ha, spray on Chinese cabbage leaf slices
[4] = reversed-phase HPLC column (C 18), pH 3.4, HPLC, reversed-phase C 18, acidic range (pH 3.4), formic acid eluents, 55° C., read-out: logP (HCOOH)
[5] = HPLC, reversed-phase C 18, acidic range (pH 3.4), formic acid eluents, 55° C., read-out: logP (HCOOH)

SMILES | pest or weed control at 500 g/ha [1, 3] [%] | chromatographic logP [2, 4] | further results
Cc1nc(-c2cccnc2)sc1C(=O)NCC1(C)CCCO1 (stereo not drawn) [Compound 160] | ≥ 70 | 1.27 | –
Cc1cc(CN(C)C(=O)c2cnc(-c3cccnc3)s2)nn1C [Compound 161] | ≥ 70 | 1.26 | –
Cc1nc(-c2cccnc2)sc1C(=O)N(C)CC(=O)OC(C)C [Compound 162] | ≥ 70 | 1.78 | –
Cc1nc(-c2cccnc2)sc1C(=O)N(C)CCC#N [Compound 163] | ≥ 70 | 1.1 | –
Cc1cc(CN(C)C(=O)c2sc(-c3cccnc3)nc2C)no1 [Compound 164] | ≥ 70 | 1.52 | –
Cc1nc(C)n(C(C)CNC(=O)c2sc(-c3cccnc3)nc2C)n1 (stereo not drawn) [Compound 165] | ≥ 70 | 1.06 | –
Cc1nc(CN(C)C(=O)c2cnc(-c3cccnc3)s2)c(C)o1 [Compound 166] | ≥ 70 | 1.44 | –
Cc1nc(-c2cccnc2)sc1C(=O)NC1(c2ccccn2)CC1 [Compound 167] | ≥ 70 | 0.97 | –
Cc1nc(-c2cccnc2)sc1C(=O)NC(C)C(F)(F)F (stereo not drawn) [Compound 168] | ≥ 70 | 1.89 | –
Cc1nc(-c2cccnc2)sc1C(=O)NCc1ccncc1 [Compound 169] | ≥ 70 | 0.69 | –
Cc1nc(-c2cccnc2)sc1C(=O)N(C)CC1CC1 [Compound 170] | ≥ 70 | 1.68 | –
O=C(NC(C(F)(F)F)C(F)(F)F)c1cnc(-c2cccnc2)s1 [Compound 171] | ≥ 70 | 2.3 | –
Cc1nc(-c2cccnc2)sc1C(=O)NCc1nc(C2CC2)no1 [Compound 172] | ≥ 70 | 1.63 | –
CCON(C)C(=O)c1cnc(-c2cccnc2)s1 [Compound 173] | ≥ 70 | 1.5 | –
COC(C)(CNC(=O)c1sc(-c2cccnc2)nc1C)OC [Compound 174] | ≥ 70 | 1.44 | –
CC(=O)CNC(=O)c1sc(-c2cccnc2)nc1C [Compound 175] | ≥ 70 | 1.02 | –
CCc1nccc(CNC(=O)c2cnc(-c3cccnc3)s2)n1 [Compound 176] | ≥ 70 | 1.19 | –
Cc1nc(-c2cccnc2)sc1C(=O)NCCCl [Compound 177] | – | – | pest or weed control at 500 g/ha ([1]; in Brassica rapa): ≥ 70%; chromatographic logP [2, 5]: 1.41
CCOC(=O)CN(OC)C(=O)c1cnc(-c2cccnc2)s1 [Compound 178] | ≥ 70 | 1.65 | –
O=C(NCc1cccc(Br)n1)c1cnc(-c2cccnc2)s1 [Compound 179] | ≥ 70 | 1.68 | –
CN(CC1CCCO1)C(=O)c1cnc(-c2cccnc2)s1 (stereo not drawn) [Compound 180] | ≥ 70 | 1.33 | –
CCCC(NC(=O)c1sc(-c2cccnc2)nc1C)C(F)(F)F (stereo not drawn) [Compound 181] | ≥ 70 | 2.58 | –
Cc1nc(-c2cccnc2)sc1C(=O)NC(C)(C)C(F)(F)F [Compound 182] | ≥ 70 | 2.24 | –
CCN(OC)C(=O)c1cnc(-c2cccnc2)s1 [Compound 183] | ≥ 70 | 1.53 | –
Cc1nc(-c2cccnc2)sc1C(=O)NCC#N [Compound 184] | ≥ 70 | 1.05 | –

SMILES | pest or weed control at 500 g/ha [1, 3] [%] | chromatographic logP [2, 4] | further results
COc1ccc(CN(CC(F)(F)F)C(=O)c2sc(-c3cccnc3)nc2C)cc1 [Compound 185] | ≥ 70 | 2.91 | –
Cc1ccc(CNC(=O)c2cnc(-c3cccnc3)s2)o1 [Compound 186] | ≥ 70 | 1.77 | –
CCN(CC1CCCO1)C(=O)c1sc(-c2cccnc2)nc1C (stereo not drawn) [Compound 187] | ≥ 70 | 1.64 | –
COCN(CC1COCCO1)C(=O)c1sc(-c2cccnc2)nc1C (stereo not drawn) [Compound 188] | ≥ 70 | 1.45 | –
Cc1nc(-c2cccnc2)sc1C(=O)NCC(F)(F)C(F)(F)F [Compound 189] | ≥ 70 | 2.13 | –
CCC(=O)N(CC#N)C(=O)c1cnc(-c2cccnc2)s1 [Compound 190] | ≥ 70 | 1.77 | –
CSC[C@H](C)NC(=O)c1cnc(-c2cccnc2)s1 [Compound 191] | ≥ 70 | 1.53 | –
CN(CC(F)(F)F)C(=O)c1cnc(-c2cccnc2)s1 [Compound 192] | ≥ 70 | 1.59 | –
Cc1nc(-c2cccnc2)sc1C(=O)NC1(c2ncccn2)CC1 [Compound 193] | ≥ 70 | 1.21 | –
Cc1nc(-c2cccnc2)sc1C(=O)NC1CSC1 [Compound 194] | ≥ 70 | 1.47 | –
Cc1nc(-c2cccnc2)sc1C(=O)NC(C)C1CCCO1 (stereo not drawn) [Compound 195] | ≥ 70 | 1.5 | –
COC(=O)N(C)NC(=O)c1sc(-c2cccnc2)nc1C [Compound 196] | ≥ 70 | – | chromatographic logP [2, 5]: 1.23
CCOC(=O)N(C)NC(=O)c1sc(-c2cccnc2)nc1C [Compound 197] | ≥ 70 | – | chromatographic logP [2, 5]: 1.48
CCC1(CC)NC(=O)N(NC(=O)c2sc(-c3cccnc3)nc2C)C1=O [Compound 199] | ≥ 70 | 1.44 | –
Cc1nc(-c2cccnc2)sc1C(=O)NN(C)Cc1ccccn1 [Compound 200] | ≥ 70 | 1.01 | –
Cc1nc(-c2cccnc2)sc1C(=O)NN1CCCC1 [Compound 201] | ≥ 70 | 1.37 | –
Cc1nc(-c2cccnc2)sc1C(=O)NN1CCCCC1 [Compound 202] | ≥ 70 | 1.39 | –
Cc1nc(-c2cccnc2)sc1C(=O)NN1CCOCC1 [Compound 203] | ≥ 70 | 1.23 | –
Cc1nc(-c2cccnc2)sc1C(=O)NN1CCOC1=O [Compound 204] | ≥ 70 | 1.11 | –
Cc1nc(-c2cccnc2)sc1C(=O)NCC(F)(F)Cl [Preparation Example 1, N-(2-chloro-2,2-difluoroethyl)-4-methyl-2-pyridin-3-ylthiazole-5-carboxamide] | – | 1.84 | pest or weed control at 500 g/ha ([1]; in Brassica rapa): ≥ 70%
Cc1cc(C)nc(CNC(=O)c2cnc(-c3cccnc3)s2)n1 [Preparation Example 3] | – | 1.19 | pest or weed control at 500 g/ha ([1]; in Brassica rapa): ≥ 70%
Cc1nc(-c2cccnc2)sc1C(=S)NCC(F)(F)F [Preparation Example 4] | ≥ 70 | 2.39 | logP (HCOOH) ([2]; HPLC, reversed-phase C 18, acidic range (pH 3.4), formic acid eluents, 55° C.): 2.38
Cc1nc(-c2cncnc2)sc1C(=O)NCC(F)(F)F [Preparation Example 5] | ≥ 70 | 1.61 | –
O=C(NCc1ncccn1)c1nnc(-c2cccnc2)s1 [Preparation Example 7] | ≥ 70 | 0.85 | chromatographic logP ([2]; pH 7.5, pH=7.5, read-out: log P (pH=7.5)): 0.85
CN(C)C(=O)c1nnc(-c2cccnc2)s1 [Preparation Example 8, N,N-dimethyl-5-pyridin-3-yl[1,3,4]thiadiazole-2-carboxamide] | – | – | pest or weed control at 500 g/ha ([1]; in Brassica rapa): ≥ 70%; chromatographic logP [2, 5]: 0.95
